Assay results reported in patent publication US9645134B1, “Isotopically-labeled solvents and the use of same in testing e-cigarettes” (Celerion, Inc., priority 2013, dated 2017).
Like-named read-outs stand apart in the source and are kept apart here. Each block holds one molecule with its values, some of them ahead of it.

What was measured:
[1] = clinical study: plasma labeled and unlabeled PG by LC-MS/MS after vaporizer use or second-hand exposure; format: in vivo, human
From the text: A clinical study protocol was generated. The objectives of this study were to measure C13-labeled PG in blood and to evaluate the extent of second-hand exposure to PG and nicotine during use of a commercially-available electronic nicotine delivery system (vaporizer).
All subjects completed screening procedures and checked in to the clinic on the morning of the Test Visit. All subjects remained in the clinic until the completion of the final study procedure later that day.
Following completion of check-in procedures, all subjects were seated in a room together approximately 30 minutes prior to the start of product administration. Subjects in the vaping group began using the vaporizers as directed by the clinic staff—one inhalation at least 3 seconds in duration every 30 seconds for a total of 30 inhalations. Each vaporizer contained a 1.8 v/v % nicotine solution in a PG vehicle. […]
The samples were kept at room temperature prior to centrifuge, and were centrifuged at 2500 RPM for 15 minutes at 4° C. within 60 minutes of collection. […] (+/− 10° C.) or below (within 90 minutes from collection) until analyzed by Celerion Bioanalytical Services. […]
Plasma PG (labeled and unlabeled) and nicotine were analyzed by LC-MS/MS using analytical methods with appropriate quality controls in accordance with FDA Good Laboratory Practice (GLP) regulations (Title 21 CFR Part 58). […]

rabbit = conditions: cited from earlier work
[2] = in vivo; cited from earlier work

blood concentration of labeled propylene glycol ([1]; non-vaping subjects (Subjects 4-6), in room with vaping subjects, FIG. 2): essentially no detectable levels
Molecule: [13CH3][13CH](O)[13CH2]O (stereo not drawn) [Species A3, Propyleneglycol-^13C3]

Molecule: OCC(O)CO [glycerol, propane-1,2,3-triol]
acute oral toxicity LD50 (rabbit; in vivo, po): 10,000 mg/kg

Molecule: propane-1,2-diol [propylene glycol]
excreted by the kidneys unchanged or as the glucuronide conjugate [2]: approximately 45% | half-life [2]: approximately 4 hours | acute oral toxicity LD50 (rabbit; oral): 18500 mg/kg | blood concentration of unlabeled propylene glycol ([1]; all subjects (Subjects 1-6), meal high in PG at about 4 hours, FIG. 3): significant
